How the values were obtained:
NMDA receptor = settings: read-out: [3H]-CCP binding assay result; cited from earlier work
[1] = test system: electroshock induced convulsions; test: Electroshock induced convulsions in the mouse; format: in vivo
[2] = biological target: T1, neutral amino acid transporter (Cricetulus griseus, UniProt G3GRU9); test: Competition with [3H]-L-phenylalanine for uptake into CHO cells; format: cell-based, Chinese hamster; settings: 20 μM [3H]-L-phenylalanine
T1 construct: uptake into Chinese hamster ovary (CHO) cells; endogenous in cells; host or cells: Chinese hamster ovary (CHO) cells
Procedure: Transport capacity was determined by measuring the ability of these compounds to compete with L-phenylalanine for uptake into Chinese hamster ovary (CHO) cells. All transport studies were performed in the presence of 20 μM [^3 H]-L-phenylalanine and a varying amount of the inventive compound. The capacity of the compound for transport was evaluated by its ability to reduce the transport of phenylalanine. The compounds were determined to be either substrates or not substrates of the neutral amino acid transporter,and have KM values of between 20 and 500 μM.

[3] = biological target: glutamate recognition site of the NMDA receptor; test: [3H]-CGP 39653 receptor binding assay, synaptosomal membrane from rat cortex; settings: read-out: affinity in [3H]-CGP binding assay (ability to displace 50% of the radioligand)
Procedure: (§1) Receptor binding experiments were performed using synaptosomal membrane from rat cortex according to means described in the literature.
(§2) Moreover, Bigge, et al., J. Med. Chem., 32 1580 (1989) discloses a [^3 H]-CCP binding assay result of 3.3 μM for the unsubstituted 5-(phosphonomethyl)-phenylalanine compound.

[4] = test system: glutamate recognition site of the NMDA receptor; test: [3H]-glutamate receptor binding assay, synaptosomal membrane from rat cortex; settings: for IC50: rat cortex synaptosomal membrane, read-out: affinity in [3H]-glutamate binding assay (ability to displace 50% of the radioligand)
Procedure: as §1, §2

T1 sequence (G3GRU9 1-506): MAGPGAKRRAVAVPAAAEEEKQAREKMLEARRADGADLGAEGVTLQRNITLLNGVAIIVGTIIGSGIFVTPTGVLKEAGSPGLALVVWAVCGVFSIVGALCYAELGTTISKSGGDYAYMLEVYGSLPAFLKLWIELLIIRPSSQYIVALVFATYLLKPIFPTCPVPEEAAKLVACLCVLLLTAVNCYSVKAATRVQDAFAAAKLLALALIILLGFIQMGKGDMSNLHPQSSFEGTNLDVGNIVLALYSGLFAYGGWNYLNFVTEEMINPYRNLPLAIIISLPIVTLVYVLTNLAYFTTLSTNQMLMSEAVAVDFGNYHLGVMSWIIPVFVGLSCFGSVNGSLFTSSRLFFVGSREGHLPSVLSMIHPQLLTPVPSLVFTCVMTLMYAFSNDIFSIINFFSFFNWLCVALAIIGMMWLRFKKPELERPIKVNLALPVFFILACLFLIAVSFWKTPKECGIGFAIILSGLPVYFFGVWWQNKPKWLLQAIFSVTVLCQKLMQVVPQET
T1 sequence (A0A9J7CH39 1-533 partner): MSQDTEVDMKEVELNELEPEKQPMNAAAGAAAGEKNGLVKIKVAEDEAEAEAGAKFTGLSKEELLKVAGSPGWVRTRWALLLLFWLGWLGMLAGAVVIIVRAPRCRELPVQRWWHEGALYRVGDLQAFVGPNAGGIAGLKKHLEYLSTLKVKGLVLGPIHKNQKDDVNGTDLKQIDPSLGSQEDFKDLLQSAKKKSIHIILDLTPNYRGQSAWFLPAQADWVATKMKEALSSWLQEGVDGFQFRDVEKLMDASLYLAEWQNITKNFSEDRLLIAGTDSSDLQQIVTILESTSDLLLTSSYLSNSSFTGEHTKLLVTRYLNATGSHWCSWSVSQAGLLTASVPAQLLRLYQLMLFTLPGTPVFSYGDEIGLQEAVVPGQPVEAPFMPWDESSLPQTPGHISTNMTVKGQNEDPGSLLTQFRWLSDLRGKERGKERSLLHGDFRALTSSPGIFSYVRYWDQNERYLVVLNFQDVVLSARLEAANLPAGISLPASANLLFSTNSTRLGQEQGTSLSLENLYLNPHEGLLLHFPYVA

IC50 [3] [nM]	IC50 [4] [nM]	SMILES	IC50 (NMDA receptor) [nM]	ED50 ([1]; iv, 50 mA 200 ms corneal shock, read-out: ED50, inhibition of hindlimb extension) [mg/kg]	anticonvulsant activity after oral administration ([1]; oral)	inhibition of phenylalanine transport [2]	improvement in potency, as measured by binding assays, over prior art NMDA receptor antagonists ([4]; [3H]-glutamate and [3H]-CGP binding, comparison with prior art compounds)
		N[C@@H](Cc1cccc(CP(=O)(O)O)c1)C(=O)O [5-(phosphonomethyl)-phenylalanine]	3300				
8	4	N[C@@H](Cc1cc(CP(=O)(O)O)cc(-c2cccc3ccccc23)c1)C(=O)O [3-(1-Naphthalenyl)-5-(phosphonomethyl)-L-phenylalanine]		< 1	demonstrates activity after oral administration with an extended duration of action	inhibited phenylalanine transport in CHO cells	at least a ten to thirty fold, and up to a several hundred fold improvement in potency
98	115	NC(Cc1cc(CP(=O)(O)O)cc(-c2ccccc2)c1)C(=O)O (single isomer, unassigned) [(+)-α-amino-3-(5-phosphonomethyl-[1,1'-biphenyl]-3-yl)propanoic acid, reference compound]					
